Earlier results, collected in patent EP1939174A1, “Inclusion complex of ezetimibe and a cyclodextrin and processes in the preparation thereof” (LEK Pharmaceuticals d.d., priority 2006, dated 2008).

**Q.** With O=C1[C@H](CC[C@H](O)c2ccc(F)cc2)[C@@H](c2ccc(O)cc2)N1c1ccc(F)cc1 [Ezetimibe, 1-4(fluorophenyl)-3-(R)-[3-(4-fluorophenyl)-3-(S)-hydroxypropyl]-4-(S)-(4-hydroxyphenyl)-2-azetidinone] as the compound, how does the “solubility in alcohols and acetone” value (in alcohols and acetone) read?
**A.** The value was “freely soluble”.

**Q.** And the solubility in water (in water)?
**A.** Its solubility in water is “practically insoluble”.
